Test results published in paper PMC7098565 (PLoS ONE, 2020).
Values joined by “and” are separate entries in the source; they are usually repeats but may differ in a detail not shown here. Equal values may be shown once. Read-outs that look alike come from different tables or passages of the source.

How the values were obtained:
[1] = system: B16-F10; assay: Cytotoxicity to tumor cells, MTT assay; format: cell-based; details: Mus musculus, 24 h, mean ± S.D (n = 3), read-out: IC50 B16F10
[2] = system: CT26.WT; assay: Cytotoxicity to tumor cells, MTT assay; format: cell-based; details: Mus musculus, mean ± S.D (n = 3)
Description: Mouse melanoma cell line B16-F10 (ATCC® Number: CRL-6475™) and mouse cell line CT26.WT (TCM37) were obtained from Cell Culture Center of the Institute of Basic Medical Sciences, Chinese Academy of Medical Sciences. The cells were maintained in DMEM supplemented with 10% (v/v) heat-inactivated fetal bovine serum (FBS) in a humidified 5% CO2 atmosphere at 37 °C. Tumor cells were plated in 96-well plate with a density of 5 × 10^3 cells/well in 100 μL. […] The medium was subsequently discarded, and 150 μL of DMSO was added to dissolve the formazan crystals. The absorbance was measured at 570 nm using a Molecular Devices Spectra Max M5 (Molecular Devices, USA).

[3] = system: Human CD3+ cells; assay: Cytotoxicity to human CD3+ cells, CellTiter-Glo (CTG) assay; format: cell-based; details: 72 h, aCD3/aCD28 1 μg/mL, mean ± S.D (n = 3)
Description: Human CD3^+ cells with the purity above 95% were provided by LDEBIO company (Guangzhou, China). CD3^+ cells were plated in the 96-well plate with a density of 1 × 10^5 cells/well in 100 μL of DMEM medium containing 10% FBS. The 50 μL of anti-CD3 antibody and anti-CD28 antibody (aCD3 and aCD28, final concentration of 1 μg/mL for each) were added into 96-well plate. […] CellTiter-Glo (CTG) reagent was added into the wells to measure CD3^+ cell viability.

[4] = system: Human CD3+ cells; assay: IFN-γ secretion by human CD3+ cells in vitro (ELISA), rescue of PD-L1-mediated inhibition; format: cell-based; details: for IFN-γl: aCD3/aCD28 1 μg/mL + PD-L1 protein 10 nM, 72 h, single samples
Description: Human CD3^+ cells were plated in the 96-well plate with a density of 1 × 10^5 cells/well in 100 μL of DMEM containing 10% FBS. The 50 μL of aCD3 and aCD28 (final concentration of 1 μg/mL for each) were added into 96-well plate without or with 50 μL of human PD-L1 protein (final concentation of 10 nM). […] The supernatants were collected for detection of IFN-γ by using human IFN-γ ELISA Kit.

[5] = system: B16-F10 tumors; assay: B16-F10 tumor isograft model, tumor growth; format: in vivo, mice; details: for Tumor volume / Tumor weight: single mice
[6] = system: IFN-γ; assay: Plasma IFN-γ level in melanoma-bearing mice (ELISA); format: in vivo
[7] = system: T lymphocytes in tumors; assay: Flow cytometry of T lymphocytes in tumors from melanoma-bearing mice; format: in vivo; details: for % Treg of CD4^+ / % CD3^+ of lymphocyte / % CD4^+ of CD3^+ / % CD8^+ of CD3^+ / % CD8^+IFN-γ of CD3D^+CD8^+: tumor, day 20, single mice; for % Treg of CD4^+: Treg = CD4+CD25+CD127low/-
[8] = Pharmacokinetics in plasma and tumor from melanoma-bearing mice (LC-MS/MS); format: in vivo; details: single oral dose 60 mg/kg; for concentration at 1 h / concentration at 3 h: male, C57BL/6NCrl, mouse, plasma, po; for concentration at 1 h / concentration at 3 h / Concentration in Tumor: 60 mg/kg
Description: At 1h, 3h and 8h after the dosing, 5 mice were decapitated, respectively, for collecting plasma and tumor tissues. All plasma samples were centrifuged for 10 min at 3000 g, separated and stored at -20 °C for followed analysis. The tumor tissues were homogenated in water (w/v = 1:4). The LC-MS/MS system consisted of an Agilent 1100 series HPLC system (Agilent Technologies, Waldbronn, USA) and a TSQ Quantum Assess tandem mass spectrometer (Thermo Electron Corporation, San Jose, CA, USA) equipped with ESI ion source operation in the positive mode. Data acquisition and processing were accomplished using the Xcaliber workstation. The chromatography separation was performed on a Waters symmetry CLU columns (150 × 2.1 mm i.e., 3.5 am, Warders, USA) with the flow rate of 0.2 ml/min in isocratic elution. The mobile phase consisted of acetonitrile-methanol-water (50:30:20, v/v/v) containing 0.1 mm ammonium acetate and 0.01% glacial acetic acid. The selective reactions monitoring mode was used to detect the analyses. […] The spray voltage was 4 kv. Sheath gas and auxilinry gas were 30 and 5 psi, respectively. The capillary temperature was 350 °C and argon gas pressure was 1.5 milli-Torr.

[9] = molecular target: PD-1 and PD-L1 binding; parameters: method as in PMID 27083005; details: HTRF binding assay; cited from earlier work
[10] = 30 mg/kg oral twice daily, day 20
[11] = treatment groups (30 and 60 mg/kg), P < 0.05, n = 6

COc1nc(OCc2cccc(-c3ccccc3)c2C)ccc1CNCCNC(C)=O [PCC0208025, N-(2-{[2-Methoxy-6-(2-methyl-biphenyl-3-ylmethoxy)-pyridin-3-ylmethyl]-amino}-ethyl)-acetamide]
IC50 [1]: 32.1 ± 2.3 µM | IC50 ([2]; 24 h): 21.9 ± 2.9 µM | IC50 ([2]; 48 h): 15.3 ± 3.4 µM | IC50 [3]: 10.3 ± 1.3 µM | PD-L1-mediated inhibition of IFN-γ production ([4]; 0.01 to 1 μM, vs aCD3/aCD28 and PD-L1 group, P < 0.05, n = 6): markedly rescued | IFN-γl ([4]; substance 0.1 mM (so in the source)): 768.3 pg/mL and 1056.6 pg/mL and 850.5 pg/mL and 945.6 pg/mL and 689.7 pg/mL and 789.4 pg/mL | IFN-γl ([4]; substance 1 mM (so in the source)): 798.3 pg/mL and 824.3 pg/mL and 997.0 pg/mL and 723.5 pg/mL and 908.8 pg/mL and 857.7 pg/mL | IFN-γl ([4]; substance 10 mM (so in the source)): 468.7 pg/mL and 398.5 pg/mL and 576.3 pg/mL and 435.3 pg/mL and 587.5 pg/mL and 523.4 pg/mL | tumor weight compared with the control group ([5]; 30 mg/kg and 60 mg/kg, P < 0.05, n = 8): significantly decreased | tumor volumes compared with the control group ([5]; 30 mg/kg and 60 mg/kg, day 20, P < 0.05, n = 8): significantly decreased | Tumor volume ([5]; 30 mg/kg oral twice daily, day 7): 99.3 mm^3 and 102.9 mm^3 and 86.2 mm^3 and 112.1 mm^3 and 129.3 mm^3 and 84.9 mm^3 and 90.7 mm^3 and 100.1 mm^3 | Tumor volume ([5]; 30 mg/kg oral twice daily, day 9): 94.0 mm^3 and 102.4 mm^3 and 154.1 mm^3 and 112.8 mm^3 and 131.0 mm^3 and 131.8 mm^3 and 105.3 mm^3 and 143.3 mm^3 | Tumor volume [5, 10]: 898.0 mm^3 and 1417.3 mm^3 and 1288.9 mm^3 and 1376.0 mm^3 and 1578.0 mm^3 and 1342.0 mm^3 and 1122.6 mm^3 and 879.0 mm^3 | Tumor weight [5, 10]: 1578.0 mg | IR (inhibition rate of tumor growth) according to tumor weight ([5]; 60 mg/kg oral gavage twice daily, day 20): 50.1% | Tumor volume ([5]; 60 mg/kg oral twice daily, day 7): 88.0 mm^3 and 80.2 mm^3 and 120.2 mm^3 and 108.0 mm^3 and 102.8 mm^3 and 96.6 mm^3 and 115.1 mm^3 and 94.6 mm^3 | Tumor weight ([5]; 60 mg/kg oral twice daily, day 20): 1678.4 mg | IFN-γ level in plasma ([6]; 60 mg/kg oral twice daily, day 20, single mice): 1678.5 pg/mL and 1589.6 pg/mL and 1467.7 pg/mL and 1256.8 pg/mL and 1756.2 pg/mL and 1476.1 pg/mL | plasma IFN-γ levels compared with the control group ([6]; 30 and 60 mg/kg, P < 0.05, n = 6): markedly elevated | percentage of CD4^+CD25^+CD127^low/− (Treg) in tumor compared with the control group ([7]; 30 mg/kg and 60 mg/kg, P < 0.05, n = 6): significantly decreased | percentage of CD3^+CD4^+ T cells in tumor compared with the control group ([7]; 60 mg/kg group, P < 0.05, n = 6): significant decreases | percentage of CD3^+ T cells in tumor compared with the control group [7, 11]: markedly increased | percentage of CD3^+CD8^+ T cells in tumor compared with the control group [7, 11]: markedly increased | percentage of CD8^+IFN-γ^+ T cells in tumor compared with the control group [7, 11]: markedly increased | % Treg of CD4^+ ([7]; 30 mg/kg, 30 mg/kg): 26.25% and 33.66% and 35.98% and 35.44% and 36.86% and 31.41% | % CD3^+ of lymphocyte ([7]; 30 mg/kg, 30 mg/kg): 58.95% and 61.13% and 52.42% and 62.48% and 58.92% and 54.72% | % CD4^+ of CD3^+ ([7]; 30 mg/kg, 30 mg/kg): 38.97% and 39.86% and 36.50% and 29.65% and 37.02% and 40.10% | % CD8^+ of CD3^+ ([7]; 30 mg/kg, 30 mg/kg): 38.80% and 39.05% and 45.77% and 42.49% and 39.23% and 36.71% | % CD8^+IFN-γ of CD3D^+CD8^+ ([7]; 30 mg/kg, 30 mg/kg): 27.98% and 25.40% and 24.84% and 24.39% and 22.29% and 22.23% | % Treg of CD4^+ ([7]; 60 mg/kg, 60 mg/kg): 32.63% and 30.22% and 32.76% and 31.72% and 28.26% | % CD3^+ of lymphocyte ([7]; 60 mg/kg, 60 mg/kg): 72.64% and 70.58% and 61.04% and 62.21% and 61.98% and 64.77% | % CD4^+ of CD3^+ ([7]; 60 mg/kg, 60 mg/kg): 36.42% and 31.49% and 39.77% and 27.21% and 38.87% and 37.34% | % CD8^+ of CD3^+ ([7]; 60 mg/kg, 60 mg/kg): 40.72% and 50.51% and 43.82% and 50.59% and 42.04% and 42.77% | % CD8^+IFN-γ of CD3D^+CD8^+ ([7]; 60 mg/kg, 60 mg/kg): 30.80% and 35.94% and 30.46% and 29.24% and 28.35% and 27.49% | concentration at 1 h ([8]; 1h, n = 5, read-out: average concentration in plasma): ~4.36 nM | concentration at 1 h ([8]; 1h, single mice, read-out: Concentration in Plasma): 3.8 nM | concentration at 3 h ([8]; 3h, n = 5, read-out: average concentration in plasma): ~3.94 nM | concentration at 3 h ([8]; 3h, single mice, read-out: Concentration in Plasma): 4.16 nM | average concentration in tumor ([8]; 1h, n = 5): about 160.7 nmol/kg | Concentration in Tumor ([8]; 1h, single mice): 167.3 nmol/kg and 207.3 nmol/kg and 154.8 nmol/kg and 139.1 nmol/kg and 136.3 nmol/kg | average concentration in tumor ([8]; 3h, n = 5): ~196.7 nmol/kg | Concentration in Tumor ([8]; 3h, single mice): 185.3 nmol/kg and 206.5 nmol/kg and 218.5 nmol/kg and 178.7 nmol/kg | average concentration in tumor ([8]; 8h, n = 5): ~127.3 nmol/kg | Concentration in Tumor ([8]; 8h, single mice): 132.4 nmol/kg and 146.7 nmol/kg and 123.3 nmol/kg and 103.8 nmol/kg and 133.2 nmol/kg | IC50 [9]: 0.018 µM
